The source of these data is US20090291883A1, “COMBINATION OF AN IMMUNOSUPPRESSIVE AGENT AND NONSTEROIDAL ANTI -INFLAMMATORY DRUGS TO TREAT DISEASE” (BOSTON MEDICAL CENTER CORPORATION, priority 2006, published 2009).

SMILES strings stand for the structures.

Data set [1] relates to MC-26 colorectal cancer cells. Briefly: Subcutaneous MC-26 colorectal cancer tumor growth in BALB/c mice. Type of data set: in vivo. As for the experimental part: (§1) A second control group included mice that were not injected with tumor cells and received no treatment.
(§2) Skin from donor B6 black mice was transplanted to recipient white BALB/c mice. […] To determine the effects of these agents on secondary tumor development, BALB/c mice were also injected subcutaneously with MC-26 colorectal cancer cells and were treated for 22 days with the above regimens. A second control group included mice that were not injected with tumor cells and received no treatment.
(§3) The inventors subcutaneously injected 2×10^4 MC-26 cells (mouse colorectal adenocarcinoma cell line) into the flanks of 6-8 week old BALB/c mice. Tumor volume was measured at regular intervals during a period of 22 days. […] Skin xenografts from donor black B6 mice were simultaneously transplanted to the backs of the mice.

Data set [2] in a line: Body weight change of MC-26 tumor-bearing BALB/c mice, day 0 to day 22. Type of data set: in vivo. The following applies: compared with mice not injected with tumor cells and untreated. As for the experimental part:
as §1, §2

Data set [3] deals with skin graft from donor B6 black mice. The data set is described as follows: Skin graft from donor B6 black mice transplanted to recipient BALB/c mice: graft rejection/survival. Type of data set: in vivo. As to the method: as §2, §3
Data set [4] has as its system colonic polyps. The settings on record: daily dose of 300 mg, taken systemically; cited from earlier work.
Data set [5] concerns sporadic colonic polyps. The settings on record: cited from earlier work; for regression of adenomatous polyps, small pilot study: sporadic colonic polyps.
For data set [6], the system named is flat colorectal mucosa. The settings on record: after treatment with sulindac, FAP subjects; cited from earlier work.
For data set [7], the system named is HT-29 colon adenocarcinoma cell line. The settings on record: following sulindac administration; cited from earlier work.
For data set [8] the following is noted: given orally as a tablet; cited from earlier work.
Data set [9] deals with colorectal cancer. The settings on record: chronic aspirin use; cited from earlier work.
The test system of data set [10] is villous adenomas of the cecum. The following applies: 30 mg weekly, for up to 20 months; cited from earlier work.

As to `CS(=O)(=O)c1ccc(C2=C(c3ccccc3)C(=O)OC2)cc1` [rofecoxib], in data set [1] (Example 1, treated for 22 days, rofecoxib chow equivalent to a human dose of 25 mg per day), the “tumor growth / tumor size (FIG. 1)” value is on record as “significantly smaller”. Further, the “tumor growth / tumor size (FIG. 4)” value in data set [1] (Example 2, treated for 22 days, cyclosporine 20 mg/kg, rofecoxib chow equivalent to a human dose of 25 mg per day) was “significantly smaller”. Further, the “tumor volume (TV)” value in data set [1] (Example 3, 2×10^4 MC-26 cells s.c. in flank, 22 days, rofecoxib chow 0.01%, cyclosporine 20 mg/kg, skin graft transplanted simultaneously, control chow 920.81±511.10) is given as 394.75±273.37 mm^3. The “tumor volume / tumor growth compared with control chow” value in data set [1] (Example 3, 22 days) was “markedly reduced”. For the same compound, the “growth and body weight gain (FIG. 2)” value in [2] (Example 1, day 0 to day 22) was “continued to grow and gained weight similarly to the control group”. Further, the “growth and body weight gain” value in data set [2] (Example 2, 22 days) is “continued to grow and gained weight similarly to the control group”. For the same compound, in data set [3] (Example 2, 22 days, cyclosporine 20 mg/kg, rofecoxib chow equivalent to a human dose of 25 mg per day), the “skin graft rejection (FIG. 3)” value is given as “rejected the skin graft”. Further, the “skin graft survival at day 15” value in data set [3] (Example 3, day 15, cyclosporine 20 mg/kg, rofecoxib chow 0.01%, control group 0%) is on record as 0%. For the same compound, the “time by which the skin graft had failed” value in data set [3] (Example 3, rofecoxib chow 0.01%) was not above 11 days.

As for `CC1=C(CC(=O)O)c2cc(F)ccc2/C1=C\c1ccc([S+](C)[O-])cc1` (stereo not drawn) [sulindac], in [4], the “number and size of colonic polyps” value is “significantly decreased”. For the same compound, in data set [5] (300 mg daily or 150 mg daily for one year, regardless of dose, nearly 100 subjects), the “regression / progression of sporadic colorectal adenomas, multicenter study” value is “induced regressions and prevented the progression”. Moreover, the “regression of adenomatous polyps, small pilot study” value in data set [5] was “no similar regression”. Moreover, the colonic mucosal apoptosis entry in data set [6] is recorded as “increased levels”. Further, in data set [7], the “apoptosis in HT-29 cells” value is on record as “induction of apoptosis”. Further, the “time to peak plasma concentration after dosing” value in data set [8] is “about two”.

Take `CC(=O)Oc1ccccc1C(=O)O` [aspirin]: the “reduction in the incidence of colorectal cancer” value in [9] is listed as 50-70%.

As to `CN1C(C(=O)Nc2ccccn2)=C(O)c2ccccc2S1(=O)=O` [piroxicam], the “regression of pre-malignant adenomas” value in [10] was “dramatic and sustained regression”. In addition, in [5], the “regression of adenomatous polyps, small pilot study” value is on record as “no similar regression”.
